Starred links: 1 amine or outer side, 2 acyl side, 3 side chain; linkers in the order of their positions; H or OH if unused. Positions of bridges follow the written chain, without caps; N, C: chain ends. Non-standard residues stand in square brackets, D forms with d. Residues, ends and D or L forms follow the SMILES beside them. Chains are numbered I, II in the order given. ξ: configuration not given here. *: point of attachment. X2 = CC(C)C(=O)OC1CC=NN([*:1])C1C(=O)[*:2]; ξNMeVal(3-OH) = CNC(C(=O)O)C(C)(C)O; X1 = COc1ccc2nc(C(=O)*)cnc2c1; Sar = CNCC(=O)O

These results are taken from patent US5643871A, “Antitumor antibiotics” (Bristol-Meyers Squibb Company, priority 1993, dated 1997).

For series [1], the system named is P388 murine leukemia. Briefly: In vivo antitumor activity against P388 leukemia (ip tumor implant / ip drug).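 On all read-outs here: dosing started the day after tumor implantation, and %T/C expresses median survival of treated mice relative to the saline-treated control group.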 Conditions: once daily for five days; for % T/C: >=125 considered significant; for Median Survival Time: CDF1 female mice, ip P388.
Experimental: CDF1 female mice were implanted intraperitoneally with a tumor inoculum of 10^6 ascites cells of P388, and treated with various doses of test compounds. The compounds were administered intraperitoneally once daily for five consecutive days starting on the day after tumor implantation. The ratio of median survival time for a treated group and that for the saline-treated control group was determined and expressed as %T/C.
For series [2], the system named is P388 leukemia. Briefly: iv/iv P388 leukemia protocol. The format is in vivo, mice. Conditions: 0.010 mg/kg/dose iv, once daily for five days; leukemic cells implanted iv.
The subject of series [3] is Madison 109 (M109) lung carcinoma. Briefly: Madison 109 lung carcinoma, ip/ip model. The format is in vivo, mice. Conditions: 0.05 mg/kg/dose ip on days 2, 6 and 10; ip tumor implantation.
Series [4] shares this test system. Conditions: sc tumor implantation, intravenous drug administration on days 2, 6 and 10. How it is done:
299- (1981). Briefly, CDF1 female mice were implanted intraperitoneally (ip) with 0.5 ml or subcutaneously (sc) with 0.1 ml of a 2% brei (w/v) of M109 lung carcinoma. The test compound was administered intraperitoneally (in ip tumor implant groups) or intravenously (in sc tumor implant groups) at various dosage levels to groups of mice on days 2, 6 and 10 after tumor implantation. The median survival time and %T/C values were determined as described above.

With `COc1ccc2nc(C(=O)NC3COC(=O)C(C(C)(C)O)N(C)C(=O)CN(C)C(=O)CNC(=O)C4C(OC(=O)C(C)C)CC=NN4C(=O)C(NC(=O)c4cnc5cc(OC)ccc5n4)COC(=O)C(C(C)(C)O)N(C)C(=O)CN(C)C(=O)CNC(=O)C4C(OC(=O)CC(C)C)CC=NN4C3=O)cnc2c1` (stereo not drawn) [BMY-46404], the “Body Weight Change on Day 4” value in series [1] (dose 0.02 mg/kg/day ip) is listed as -0.1; in series [1] (dose 0.05 mg/kg/day ip), 0.2; in series [1] (dose 0.2 mg/kg/day ip), -0.0; in series [1] (dose 0.7 mg/kg/day ip) it was -0.3; in series [1] (dose 2.0 mg/kg/day ip), -0.7. The “% T/C” value in series [1] (dose 0.02 mg/kg/day ip) stood at 130%; in series [1] (dose 0.05 mg/kg/day ip), 140%; in series [1] (dose 0.2 mg/kg/day ip), 135%; in series [1] (dose 0.7 mg/kg/day ip) it was 165%; in series [1] (dose 2.0 mg/kg/day ip), 80%. Also, the “Median Survival Time” value in series [1] (dose 0.02 mg/kg/day ip) came out at 13.0; in series [1] (dose 0.05 mg/kg/day ip), 14.0; in series [1] (dose 0.2 mg/kg/day ip), 13.5; in series [1] (dose 0.7 mg/kg/day ip), 16.5; in series [1] (dose 2.0 mg/kg/day ip), 8.5.

For `COc1ccc2nc(C(=O)NC3COC(=O)C(C(C)(C)O)N(C)C(=O)CN(C)C(=O)CNC(=O)C4C(OC(=O)CC(C)C)CC=NN4C(=O)C(NC(=O)c4cnc5cc(OC)ccc5n4)COC(=O)C(C(C)(C)O)N(C)C(=O)CN(C)C(=O)CNC(=O)C4C(OC(=O)CC(C)C)CC=NN4C3=O)cnc2c1` (stereo not drawn) [BMY-46405], the “Body Weight Change on Day 4” value in series [1] (dose 0.02 mg/kg/day ip) is -0.8; in series [1] (dose 0.05 mg/kg/day ip) it was -0.8; in series [1] (dose 0.2 mg/kg/day ip) it was -3.4. The “% T/C” value in series [1] (dose 0.02 mg/kg/day ip) is reported as 140%; in series [1] (dose 0.05 mg/kg/day ip), 175%; in series [1] (dose 0.2 mg/kg/day ip), “Tox”; in series [1] (dose 0.7 mg/kg/day ip) it was “Tox”; in series [1] (dose 2.0 mg/kg/day ip), “Tox”. Besides, the “Median Survival Time” value in series [1] (dose 0.02 mg/kg/day ip) is reported as 14.0; in series [1] (dose 0.05 mg/kg/day ip), 17.5; in series [1] (dose 0.2 mg/kg/day ip) it was “Tox”; in series [1] (dose 0.7 mg/kg/day ip), “Tox”; in series [1] (dose 2.0 mg/kg/day ip), “Tox”.

With `COc1ccc2nc(C(=O)NC3COC(=O)C(C(C)(C)O)N(C)C(=O)CN(C)C(=O)CNC(=O)C4C(OC(=O)C(C)C)CC=NN4C(=O)C(NC(=O)c4cnc5cc(OC)ccc5n4)COC(=O)C(C(C)(C)O)N(C)C(=O)CN(C)C(=O)CNC(=O)C4C(OC(C)=O)CC=NN4C3=O)cnc2c1` (stereo not drawn) [BMY-46572], the entries for the “Body Weight Change on Day 4” value in series [1] (dose 0.003 mg/kg/day ip), in series [1] (dose 0.01 mg/kg/day ip) and in series [1] (dose 0.03 mg/kg/day ip) were 0.4, 0.5 and -0.0, respectively. In addition, the figures for the “% T/C” value in series [1] (dose 0.003 mg/kg/day ip), in series [1] (dose 0.01 mg/kg/day ip) and in series [1] (dose 0.03 mg/kg/day ip) were 110%, 125% and 140%, respectively. Besides, the “Median Survival Time” value is listed as 11.0 in series [1] (dose 0.003 mg/kg/day ip), 12.5 in series [1] (dose 0.01 mg/kg/day ip) and 14.0 in series [1] (dose 0.03 mg/kg/day ip).

For the compound `COc1ccc2nc(C(=O)NC3COC(=O)C(C(C)(C)O)N(C)C(=O)CN(C)C(=O)CNC(=O)C4C(OC(=O)C(C)C)CC=NN4C(=O)C(NC(=O)c4cnc5cc(OC)ccc5n4)COC(=O)C(C(C)(C)O)N(C)C(=O)CN(C)C(=O)CNC(=O)C4C(OC(=O)C(C)C)CC=NN4C3=O)cnc2c1` (stereo not drawn) [BMY-45012] (I: X1-S[X2]G[Sar][ξNMeVal(3-OH)] / II: X1-S[X2]G[Sar][ξNMeVal(3-OH)]; ester I:1-II:C, I:C-II:1; configuration not given here), the “maximum %T/C” value is listed as 113% in series [2] and 131% in series [3]. For the same compound, the “antitumor activity (%T/C)” value in series [4] was “not significantly active”. The “Body Weight Change on Day 4” value in series [1] (dose 0.02 mg/kg/day ip) is given as -0.4; in series [1] (dose 0.05 mg/kg/day ip) it was 0.3; in series [1] (dose 0.2 mg/kg/day ip), -0.7; in series [1] (dose 0.7 mg/kg/day ip) it was -0.1. The “% T/C” value in series [1] (dose 0.02 mg/kg/day ip) is 115%; in series [1] (dose 0.05 mg/kg/day ip), 145%; in series [1] (dose 0.2 mg/kg/day ip) it was 145%; in series [1] (dose 0.7 mg/kg/day ip), 95%. Moreover, the “Median Survival Time” value in series [1] (dose 0.02 mg/kg/day ip) was determined as 11.5; in series [1] (dose 0.05 mg/kg/day ip), 14.5; in series [1] (dose 0.2 mg/kg/day ip), 14.5; in series [1] (dose 0.7 mg/kg/day ip), 9.5.

For `CCC(=O)OC1CC=NN2C(=O)C(NC(=O)c3cnc4cc(OC)ccc4n3)COC(=O)C(C(C)(C)O)N(C)C(=O)CN(C)C(=O)CNC(=O)C3C(OC(=O)C(C)C)CC=NN3C(=O)C(NC(=O)c3cnc4cc(OC)ccc4n3)COC(=O)C(C(C)(C)O)N(C)C(=O)CN(C)C(=O)CNC(=O)C12` (stereo not drawn) [BMY-46408], the “Body Weight Change on Day 4” value in series [1] (dose 0.02 mg/kg/day ip) is -0.1; in series [1] (dose 0.05 mg/kg/day ip), -0.4; in series [1] (dose 0.2 mg/kg/day ip), 0.2; in series [1] (dose 0.7 mg/kg/day ip), 0.3. Further, the “% T/C” value in series [1] (dose 0.02 mg/kg/day ip) was 150%; in series [1] (dose 0.05 mg/kg/day ip), 155%; in series [1] (dose 0.2 mg/kg/day ip), 155%; in series [1] (dose 0.7 mg/kg/day ip) it was 85%; in series [1] (dose 2.0 mg/kg/day ip), “Tox”. Also, the “Median Survival Time” value in series [1] (dose 0.02 mg/kg/day ip) was 15.0; in series [1] (dose 0.05 mg/kg/day ip), 15.5; in series [1] (dose 0.2 mg/kg/day ip), 15.5; in series [1] (dose 0.7 mg/kg/day ip), 8.5; in series [1] (dose 2.0 mg/kg/day ip), “Tox”.

On to `CCC(=O)OC1CC=NN2C(=O)C(NC(=O)c3cnc4cc(OC)ccc4n3)COC(=O)C(C(C)(C)O)N(C)C(=O)CN(C)C(=O)CNC(=O)C3C(OC(=O)CC)CC=NN3C(=O)C(NC(=O)c3cnc4cc(OC)ccc4n3)COC(=O)C(C(C)(C)O)N(C)C(=O)CN(C)C(=O)CNC(=O)C12` (stereo not drawn) [BMS-181060], for which the “Body Weight Change on Day 4” value in series [1] (dose 0.003 mg/kg/day ip) is given as 1.0; in series [1] (dose 0.01 mg/kg/day ip) it was 0.1; in series [1] (dose 0.03 mg/kg/day ip), 0.0; in series [1] (dose 0.09 mg/kg/day ip) it was -0.9; in series [1] (dose 0.27 mg/kg/day ip) it was 0.7. Besides, the “% T/C” value in series [1] (dose 0.003 mg/kg/day ip) is 105%; in series [1] (dose 0.01 mg/kg/day ip), 127%; in series [1] (dose 0.03 mg/kg/day ip) it was 127%; in series [1] (dose 0.09 mg/kg/day ip), 91%; in series [1] (dose 0.27 mg/kg/day ip), “Tox”; in series [1] (dose 0.81 mg/kg/day ip), “Tox”. The “Median Survival Time” value was 11.5 in series [1] (dose 0.003 mg/kg/day ip); 14.0 in series [1] (dose 0.01 mg/kg/day ip); 14.0 in series [1] (dose 0.03 mg/kg/day ip); 10.0 in series [1] (dose 0.09 mg/kg/day ip); “Tox” in series [1] (dose 0.27 mg/kg/day ip); “Tox” in series [1] (dose 0.81 mg/kg/day ip).

For `CCC(=O)OC1CC=NN2C(=O)C(NC(=O)c3cnc4cc(OC)ccc4n3)COC(=O)C(C(C)(C)O)N(C)C(=O)CN(C)C(=O)CNC(=O)C3C(OC(C)=O)CC=NN3C(=O)C(NC(=O)c3cnc4cc(OC)ccc4n3)COC(=O)C(C(C)(C)O)N(C)C(=O)CN(C)C(=O)CNC(=O)C12` (stereo not drawn) [BMY-46407], the “Body Weight Change on Day 4” value in series [1] (dose 0.02 mg/kg/day ip) is 1.0; in series [1] (dose 0.05 mg/kg/day ip), -0.0; in series [1] (dose 0.2 mg/kg/day ip), -0.01. For the same compound, the “% T/C” value in series [1] (dose 0.02 mg/kg/day ip) was 120%; in series [1] (dose 0.05 mg/kg/day ip) it was 135%; in series [1] (dose 0.2 mg/kg/day ip), “Tox”; in series [1] (dose 0.7 mg/kg/day ip) it was “Tox”; in series [1] (dose 2.0 mg/kg/day ip) it was “Tox”. Also, the “Median Survival Time” value in series [1] (dose 0.02 mg/kg/day ip) was 12.0; in series [1] (dose 0.05 mg/kg/day ip), 13.5; in series [1] (dose 0.2 mg/kg/day ip) it was “Tox”; in series [1] (dose 0.7 mg/kg/day ip), “Tox”; in series [1] (dose 2.0 mg/kg/day ip) it was “Tox”.
